In experiment [1] the test system is MDA-MB-231. In words: Cytotoxicity against human MDA-MB-231 cells assessed as inhibition of cell growth incubated for 72 hrs by CCK-8 assay. Format: functional, cell-based. Conditions: MDA-MB-231, 72 h.
Experiment [2] concerns the target T1, 5'-nucleotidase (Homo sapiens, UniProt P21589). Description: Inhibition of human CD73 assessed as reduction in inorganic phosphate release upon substrate hydrolysis using AMP[…] as substrate incubated for 1 hr followed by substrate addition and measured after 2 hrs by malachite green reagent based colorimetric assay.
In experiment [3] the target is T2, 5'-nucleotidase (Mus musculus, UniProt Q61503).
T2 sequence (Q61503 whole entry): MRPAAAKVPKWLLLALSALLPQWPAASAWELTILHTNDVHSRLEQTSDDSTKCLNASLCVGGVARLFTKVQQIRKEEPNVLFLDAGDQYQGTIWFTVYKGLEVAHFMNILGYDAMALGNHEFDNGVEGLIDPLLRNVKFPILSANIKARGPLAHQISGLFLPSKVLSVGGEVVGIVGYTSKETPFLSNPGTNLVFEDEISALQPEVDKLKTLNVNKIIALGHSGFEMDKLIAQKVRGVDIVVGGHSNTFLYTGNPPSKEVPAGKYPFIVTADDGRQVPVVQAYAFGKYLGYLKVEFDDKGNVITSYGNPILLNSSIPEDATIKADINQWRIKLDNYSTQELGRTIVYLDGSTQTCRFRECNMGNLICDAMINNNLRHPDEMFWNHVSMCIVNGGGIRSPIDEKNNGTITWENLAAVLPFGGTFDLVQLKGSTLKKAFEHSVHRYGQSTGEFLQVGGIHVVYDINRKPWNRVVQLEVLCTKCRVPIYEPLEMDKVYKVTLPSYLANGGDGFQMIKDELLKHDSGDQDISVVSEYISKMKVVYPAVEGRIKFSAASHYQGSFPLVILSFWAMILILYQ
Description: Inhibition of mouse CD73 assessed as reduction in inorganic phosphate release upon substrate hydrolysis using AMP[…] as substrate incubated for 1 hr followed by substrate addition and measured after 2 hrs by malachite green reagent based colorimetric assay.

For experiment [4], the system named is CD4+ve Th. In words: Induction of anti-CD3/CD28 antibodies-stimulated CD4-positive Th cell activation in C57BL/6J mouse assessed as reversal of AMP/EHNA-inhibited IFN-gamma production at 10 uM preincubated for 15 mins followed by AMP/EHNA addition and measured after 96 hrs by ELISA. Format: functional, cell-based. Conditions: time 5775.0 min.
In experiment [5] the test system is MIA PaCa-2. In words: Cytotoxicity against human MIA PaCa-2 cells assessed as inhibition of cell growth incubated for 72 hrs by CCK-8 assay. In kind it is functional, cell-based. Conditions: MIA PaCa-2, 72 h.
Experiment [6] is described as follows: Selectivity index, ratio of IC50 for inhibition of mose CD73 to IC50 for inhibition of human CD73.
Experiment [7] concerns the target T1, 5'-nucleotidase. In words: Potency index, ratio of betulinic acid IC50 to test compound IC50 for inhibition of human CD73 assessed as reduction in inorganic phosphate release upon substrate hydrolysis using AMP[…] as substrate incubated for 1 hr followed by substrate addition and measured after 2 hrs by malachite green reagent based colorimetric assay. Particulars: time 3.0 hrs.

Active and inactive are the calls of the source. No cut-off for these calls is given here. Bounds are passed on as bounds.

T1 sequence (P21589 whole entry): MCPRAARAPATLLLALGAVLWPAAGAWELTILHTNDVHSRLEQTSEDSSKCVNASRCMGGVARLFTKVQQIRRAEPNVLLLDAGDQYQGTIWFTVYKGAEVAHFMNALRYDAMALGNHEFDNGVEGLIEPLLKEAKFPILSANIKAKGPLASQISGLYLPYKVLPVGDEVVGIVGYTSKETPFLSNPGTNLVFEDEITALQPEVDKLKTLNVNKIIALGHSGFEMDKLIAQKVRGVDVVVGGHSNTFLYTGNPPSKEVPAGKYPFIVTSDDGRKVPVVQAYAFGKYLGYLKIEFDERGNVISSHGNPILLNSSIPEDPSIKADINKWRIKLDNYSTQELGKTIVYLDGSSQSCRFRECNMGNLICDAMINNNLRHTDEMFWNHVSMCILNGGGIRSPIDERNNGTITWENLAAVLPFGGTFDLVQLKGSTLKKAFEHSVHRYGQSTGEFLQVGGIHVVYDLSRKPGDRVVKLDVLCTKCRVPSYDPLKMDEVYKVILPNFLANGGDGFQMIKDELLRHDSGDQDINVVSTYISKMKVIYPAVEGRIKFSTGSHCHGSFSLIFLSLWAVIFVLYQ

Regarding `C=C(C)[C@@H]1CC[C@]2(C(=O)O)CC[C@]3(C)[C@H](CC[C@@H]4[C@@]5(C)CC[C@H](O)C(C)(C)[C@@H]5CC[C@]43C)[C@@H]12` [BETULINIC ACID], the IC50 in experiment [1] amounted to 19.1 µM; in experiment [2] it was 7.28 µM; in experiment [3], 68.8 µM; in experiment [5], 26.7 µM. In experiment [4], the result was Active.

Consider `C=C(C)[C@@H]1CC[C@]2(C(=O)O)CC[C@]3(C)[C@H](CC[C@@H]4[C@@]5(C)CCC(=O)C(C)(C)[C@@H]5CC[C@]43C)[C@@H]12` [BETUNOLIC ACID], for which the IC50 in experiment [2] was 43.3 µM.

Take `C=C(C)[C@@H]1CC[C@]2(C(=O)O)CC[C@]3(C)[C@H](CC[C@@H]4[C@@]5(C)CC[C@H](OC(=O)N6CC(O)C6)C(C)(C)[C@@H]5CC[C@]43C)[C@@H]12`: the IC50 in experiment [2] and in experiment [3] was more than 100 µM in each case.

For `Nc1ncnc2c1ncn2[C@@H]1O[C@H](COP(=O)(O)CP(=O)(O)O)[C@@H](O)[C@H]1O`, the outcome in experiment [4] was Active.

Consider `C=C(C)[C@@H]1CC[C@]2(C(=O)O)CC[C@]3(C)[C@H](CC[C@@H]4[C@@]5(C)CC[C@H](OC(=O)NCCO)C(C)(C)[C@@H]5CC[C@]43C)[C@@H]12`, for which the IC50 was 37.2 µM in experiment [2] and more than 100 µM in experiment [3].

With `C=C(C)[C@@H]1CC[C@]2(C(=O)O)CC[C@]3(C)[C@H](CC[C@@H]4[C@@]5(C)CC[C@H](OC(=O)N6CCCC6)C(C)(C)[C@@H]5CC[C@]43C)[C@@H]12`, the IC50 in experiment [2] and in experiment [3] was more than 100 µM in each case.

On to `C=C(C)[C@@H]1CC[C@]2(C(=O)O)CC[C@]3(C)[C@H](CC[C@@H]4[C@@]5(C)CC[C@H](OC(=O)NC6CC6)C(C)(C)[C@@H]5CC[C@]43C)[C@@H]12`, for which the IC50 in experiment [2] is 81.4 µM; in experiment [3] it was more than 100 µM.

For the compound `C=C(C)[C@@H]1CC[C@]2(C(=O)O)CC[C@]3(C)[C@H](CC[C@@H]4[C@@]5(C)CC[C@H](OC(=O)N6CCCCC6)C(C)(C)[C@@H]5CC[C@]43C)[C@@H]12`, the IC50 in experiment [1] was more than 100 µM; in experiment [3], 14.6 µM; in experiment [5], more than 100 µM. Moreover, the Ratio IC50 in experiment [6] worked out at 10.5; in experiment [7], 5.2.

With `C=C(C)[C@@H]1CC[C@]2(C(=O)O)CC[C@]3(C)[C@H](CC[C@@H]4[C@@]5(C)CC[C@H](OC(=O)N6CCC(N)CC6)C(C)(C)[C@@H]5CC[C@]43C)[C@@H]12`, the IC50 in experiment [2] and in experiment [3] was more than 100 µM in each case.

`Nc1ccn([C@@H]2O[C@H](CO)[C@@H](O)C2(F)F)c(=O)n1` [GEMCITABINE]: the concentration for half-maximal inhibition (IC50) in experiment [1] amounted to 2.22 µM; in experiment [5], 0.36 µM.

Consider `C=C(C)[C@@H]1CC[C@]2(C(=O)O)CC[C@]3(C)[C@H](CC[C@@H]4[C@@]5(C)CC[C@H](OC(=O)NC(C)C)C(C)(C)[C@@H]5CC[C@]43C)[C@@H]12`, for which the IC50 in experiment [1] is more than 100 µM; in experiment [2] it was 5.69 µM; in experiment [3], 59 µM; in experiment [5], 77.2 µM. Besides, the Ratio IC50 in experiment [6] was 10.4; in experiment [7] it was 1.3.

`C=C(C)[C@@H]1CC[C@]2(C(=O)O)CC[C@]3(C)[C@H](CC[C@@H]4[C@@]5(C)CC[C@H](OC(=O)N6CCN(C)CC6)C(C)(C)[C@@H]5CC[C@]43C)[C@@H]12`: the IC50 in experiment [2] and in experiment [3] was more than 100 µM in each case.

Turning to `C=C(C)[C@@H]1CC[C@]2(C(=O)O)CC[C@]3(C)[C@H](CC[C@@H]4[C@@]5(C)CC[C@H](OC(=O)NCCN6CCOCC6)C(C)(C)[C@@H]5CC[C@]43C)[C@@H]12`, the IC50 in experiment [2] and in experiment [3] was more than 100 µM in each case.

Regarding `C=C(C)[C@@H]1CC[C@]2(C(=O)O)CC[C@]3(C)[C@H](CC[C@@H]4[C@@]5(C)CC[C@H](OC(=O)N6CCNCC6)C(C)(C)[C@@H]5CC[C@]43C)[C@@H]12`, the Ratio IC50 in experiment [6] stood at 2. Also, the IC50 is 16.8 µM in experiment [2] and 33.6 µM in experiment [3].

As for `C=C(C)[C@@H]1CC[C@]2(C(=O)O)CC[C@]3(C)[C@H](CC[C@@H]4[C@@]5(C)CC[C@H](O)[C@@](C)(CO)[C@@H]5CC[C@]43C)[C@@H]12`, in experiment [2], the IC50 is more than 100 µM.

Turning to `C=C(C)[C@@H]1CC[C@]2(C=O)CC[C@]3(C)[C@H](CC[C@@H]4[C@@]5(C)CC[C@H](O)C(C)(C)[C@@H]5CC[C@]43C)[C@@H]12` [BETULINALDEHYDE], the IC50 in experiment [2] was more than 100 µM.

For the origin of these results see ChEMBL document CHEMBL5143600, “Discovery and optimization of betulinic acid derivatives as novel potent CD73 inhibitors” (Bioorg Med Chem, 2022).
